Results as given in patent publication US11214540B2, “Compositions for treating neurodegenerative diseases” (COGNITION THERAPEUTICS, INC., priority 2017, dated 2022).

Assays:
potassium channel hERG = potassium channel hERG (Homo sapiens (Human), UniProt Q12809); test: In vitro testing for hERG inhibition; assay type: biochemical; conditions: in vitro toxicity potassium channel hERG
Protocol: In vitro testing for hERG inhibition was performed in a standard assay (See: Haverkamp W, Breithardt G, Carnm A J, Janse M J, Rosen M R, Antzelevitch C, Escande D, Franz M, Malik M, Moss A and Shah R. (2000) Eur Heat J 21 (15); 1216-31).

log P = assay type: physicochemical
Summary of the method: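 Ratio of un-ionized compound concentrations between octanol and water, with aqueous pH set so the un-ionized form predominates. Value given as the log of the octanol/water ratio.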

[1] = molecular target: Sigma-1 receptors on Jurkat cell membranes (Homo sapiens (Human), UniProt Q99720); test: Competitive Radioligand Binding Assay 1, Sigma-1 binding ([3H](+)pentazocine displacement); conditions: sigma-1 receptor affinity; read-out: S1 Ki
Chain of Sigma-1 receptors on Jurkat cell membranes (Q99720 whole entry): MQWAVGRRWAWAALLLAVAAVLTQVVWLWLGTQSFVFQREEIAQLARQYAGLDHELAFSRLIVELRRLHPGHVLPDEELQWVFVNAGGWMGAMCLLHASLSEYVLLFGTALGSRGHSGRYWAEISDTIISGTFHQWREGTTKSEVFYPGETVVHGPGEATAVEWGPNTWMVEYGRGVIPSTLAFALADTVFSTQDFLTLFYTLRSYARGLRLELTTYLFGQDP
Protocol: Certain compounds were tested for interaction with several receptors by blocking the binding or action of their agonists or antagonists. Some compounds were tested to see whether they interact directly with known cellular receptor or signaling proteins. Compounds can be tested for the ability to displace binding of known agonists or antagonists of a given human receptor that was overexpressed in cell lines or isolated from tissue. Compounds can also be tested for the ability to block downstream signaling induced by agonists or antagonists of a given human receptor. Compounds can be tested for action at 100 known receptors, and it is desirable that specific activity will occur at only a small subset of CNS-relevant receptors.
For Sigma-1 binding, various concentrations of test compounds from 100 μM to 1 nM were used to displace 8 nM [3H](+)pentazocine from endogenous receptors on Jurkat cell membranes (Ganapathy M E et al. 1991, J Pharmacol. Exp. Ther. 289:251-260). 10 μM Haloperidol was used to define non-specific binding. […] (Bowen W D, et al. 1993, Mol. Neuropharmcol 3:117-126). 10 μM Haloperidol was used to define non-specific binding. Reactions were terminated by rapid filtration through Whatman GF/C filters using a Brandel 12R cell harvester followed by two washes with ice-cold buffer. Radioactivity on the dried filter discs was measured using a liquid scintillation analyzer (Tri-Carb 2900TR; PerkinElmer Life and Analytical Sciences). The displacement curves were plotted and the Ki values of the test compounds for the receptor subtypes were determined using GraphPad Prism (GraphPad Software Inc., San Diego, Calif.). The percentage specific binding was determined by dividing the difference between total bound (disintegrations per minute) and nonspecific bound (disintegrations per minute) by the total bound (disintegrations per minute). […]

[2] = molecular target: Sigma-2 receptors on membranes from rat cerebral cortex (Rattus norvegicus (Rat), UniProt Q5U3Y7); test: Competitive Radioligand Binding Assay 1, Sigma-2 binding ([3H]DTG displacement with (+)pentazocine mask); conditions: sigma-2 receptor affinity; read-out: S2 Ki
Chain of Sigma-2 receptors on membranes from rat cerebral cortex (Q5U3Y7 whole entry): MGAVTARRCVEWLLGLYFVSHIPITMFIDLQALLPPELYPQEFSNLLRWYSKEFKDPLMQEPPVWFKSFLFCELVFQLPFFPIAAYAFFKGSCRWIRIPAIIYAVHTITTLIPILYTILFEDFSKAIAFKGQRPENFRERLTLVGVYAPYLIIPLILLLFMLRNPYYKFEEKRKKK
Protocol: Using the same protocol, some compounds for which membrane trafficking data are given in Table 1 were tested for recognition of sigma-2 receptor. Certain compounds preferentially bind to the sigma-2 receptor.
For Sigma-1 binding, various concentrations of test compounds from 100 μM to 1 nM were used to displace 8 nM [3H](+)pentazocine from endogenous receptors on Jurkat cell membranes (Ganapathy M E et al. 1991, J Pharmacol. Exp. Ther. 289:251-260). 10 μM Haloperidol was used to define non-specific binding. […] (Bowen W D, et al. 1993, Mol. Neuropharmcol 3:117-126). 10 μM Haloperidol was used to define non-specific binding. Reactions were terminated by rapid filtration through Whatman GF/C filters using a Brandel 12R cell harvester followed by two washes with ice-cold buffer. Radioactivity on the dried filter discs was measured using a liquid scintillation analyzer (Tri-Carb 2900TR; PerkinElmer Life and Analytical Sciences). The displacement curves were plotted and the Ki values of the test compounds for the receptor subtypes were determined using GraphPad Prism (GraphPad Software Inc., San Diego, Calif.). The percentage specific binding was determined by dividing the difference between total bound (disintegrations per minute) and nonspecific bound (disintegrations per minute) by the total bound (disintegrations per minute).
Affinities for Sigma-1 and Sigma-2 receptors are typically obtained from published studies using cerebral tissue homogenates with [3H](+)pentazocine to measure displacement from Sigma-1 receptors and [3H] 1,3-Di-(2-tolyl)guanidine in the presence of 300 nM (+)pentazocine to measure displacement from Sigma-2 receptors.

[3] = system: Abeta oligomer-induced membrane trafficking deficits in primary hippocampal neurons; test: Membrane Trafficking/Exocytosis (MTT) assay, Abeta oligomer effect on neurons; assay type: cell-based, rat; conditions: membrane trafficking; read-out: EC50 Abeta;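 further: compound potency for inhibiting the Abeta oligomer effect on exocytosis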
Protocol: Compounds according to any embodiment described herein, were tested for their ability to inhibit an amyloid beta effect on the cells. The compounds generally were able to inhibit the amyloid beta effect as measured by a membrane trafficking/exocytosis assay (MTT assay). The rationale for this assay was as follows:
The present exocytosis assay was adapted for use with mature primary neuronal cultures grown for 3 weeks in vitro. See WO 2011/106785, which is incorporated herein by reference in its entirety. Abeta oligomers cause a dose-dependent decrease in the amount of intracellular vesicles (puncta) filled with reduced purple formazan as measured via image processing using a Cellomics VTI automated microscopy system. […] Increasing the amount of Abeta oligomers eventually results in overt toxicity. Thus, the concentration of neuroactive Abeta oligomers used in the assay is much lower than that causing cell death. […] When configured in this manner, the assay is able to detect compounds that inhibit nonlethal effects of Abeta oligomer whether these compounds act via disruption of oligomers, inhibition of oligomer binding to neurons, or counteraction of signal transduction mechanisms of action initiated by oligomer binding.
Primary hippocampal neurons from E18 Sprague-Dawley rat embryos were plated at optimized concentrations in 384 well plates in NB media (Invitrogen). Neurons were maintained in cultures for 3 weeks, with twice weekly feeding of NB media with N2 supplement (Invitrogen).
A test compound was added to cells at concentrations ranging from 100 uM to 0.001 nM followed by addition of vehicle or Abeta oligomer preparations (3 μM total Abeta protein concentration), and incubated for 1 to 24 hr at 37° C. in 5% CO2. MTT reagent (3-(4,5-dimethylthizaol-2yl)-2,5diphenyl tetrazolium bromide) (Roche Molecular Biochemicals) was reconstituted in phosphate buffered saline to 5 mg/mL. 10 μL of MTT labeling reagent is added to each well and incubated at 37° C. for 1 h, then imaged. Exocytosis was assessed by automated microscopy and image processing to quantify the amount of endocytosed and exocytosed formazan.
Each assay plate was formatted so that compounds are tested with and without Abeta oligomer on each plate. This design eliminates toxic or metabolically active compounds early on in the screening cascade (at the level of the primary screen). Reduced formazan was first visible in intracellular vesicles. Eventual formazan exocytosis was accelerated via Abeta oligomers.
Human amyloid peptide 1-42 was obtained from a number of commercial vendors such as California Peptide, with lot-choice contingent upon quality control analysis. Quality controls of oligomer preparations consist of Westerns to determine oligomer size ranges and relative concentrations, and the MTT assay to confirm exocytosis acceleration without toxicity. Toxicity was monitored in each image-based assay via quantification of nuclear morphology visualized with the DNA binding blue dye DAPI (Invitrogen). Nuclei that are fragmented are considered to be in late stage apoptosis (Majno and Joris '95) and the test would be rejected. Peptide lots producing unusual peptide size ranges or significant toxicity at a standard 1.5 μM concentration on neurons would also be rejected.
Data handling and analysis were accomplished by Cellomics VTI image analysis software and STORE automated database software. Because of the low dynamic range and neuronal well-to-well variability after three weeks in culture, statistical comparisons are made via pairwise Tukey-Kramer analysis to determine the significance of the separation between compound+Abeta oligomers from Abeta alone, and between compound alone from vehicle. The ability of mature primary neurons to more closely approximate the electrophysiologically mediated signal transduction network of the adult brain justifies this screening strategy. […]

Chain of potassium channel hERG (Q12809 whole entry): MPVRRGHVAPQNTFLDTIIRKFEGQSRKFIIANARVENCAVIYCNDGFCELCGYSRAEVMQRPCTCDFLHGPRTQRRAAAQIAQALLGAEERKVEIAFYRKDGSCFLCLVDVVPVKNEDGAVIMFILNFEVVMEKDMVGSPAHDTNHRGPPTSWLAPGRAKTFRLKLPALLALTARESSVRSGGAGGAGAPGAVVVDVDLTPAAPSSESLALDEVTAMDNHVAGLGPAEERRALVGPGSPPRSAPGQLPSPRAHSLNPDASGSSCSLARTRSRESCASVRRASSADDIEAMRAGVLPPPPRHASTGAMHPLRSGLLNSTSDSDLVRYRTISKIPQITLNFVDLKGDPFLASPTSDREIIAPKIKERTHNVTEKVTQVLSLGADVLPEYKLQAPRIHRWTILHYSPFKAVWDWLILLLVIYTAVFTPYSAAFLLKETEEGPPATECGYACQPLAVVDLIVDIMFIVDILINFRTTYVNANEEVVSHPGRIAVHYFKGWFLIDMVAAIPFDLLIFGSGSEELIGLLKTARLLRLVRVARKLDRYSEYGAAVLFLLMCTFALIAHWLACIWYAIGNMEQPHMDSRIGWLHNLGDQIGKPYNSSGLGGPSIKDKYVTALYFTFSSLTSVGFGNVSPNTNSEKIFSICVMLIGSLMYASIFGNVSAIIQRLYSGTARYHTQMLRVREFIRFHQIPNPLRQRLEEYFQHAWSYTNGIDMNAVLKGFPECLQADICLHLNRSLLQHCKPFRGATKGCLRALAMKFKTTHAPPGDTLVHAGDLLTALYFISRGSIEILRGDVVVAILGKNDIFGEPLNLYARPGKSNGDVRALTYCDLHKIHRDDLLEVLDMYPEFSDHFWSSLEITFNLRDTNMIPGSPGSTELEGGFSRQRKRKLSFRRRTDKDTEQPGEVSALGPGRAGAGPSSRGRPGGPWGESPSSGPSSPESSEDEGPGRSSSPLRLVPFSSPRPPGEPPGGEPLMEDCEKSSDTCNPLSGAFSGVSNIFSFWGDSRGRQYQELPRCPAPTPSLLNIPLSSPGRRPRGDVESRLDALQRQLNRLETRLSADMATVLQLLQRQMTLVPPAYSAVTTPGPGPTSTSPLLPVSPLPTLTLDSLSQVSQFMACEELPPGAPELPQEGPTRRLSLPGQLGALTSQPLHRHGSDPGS

CC(CC(C)(C)c1ccc(F)cc1)N1CCC(O)CC1 (stereo not drawn) [Compound 25]
IC50 (potassium channel hERG): 4000 nM
log P (log P): 3.11
Ki [1]: 2.3 nM
Ki [2]: 10 nM

CC(C)=CC(CC(C)(C)c1ccc(Cl)cc1)N1CCC(c2ccc(S(C)(=O)=O)cc2)CC1 (stereo not drawn) [Compound 32]
EC50 [3]: 6900 nM
log P (log P): 6.37
Ki [2]: 32 nM

CC(CC(C)(C)c1ccc(C(F)(F)F)cc1)N1CCC(O)CC1 (stereo not drawn) [Compound 13]
IC50 (potassium channel hERG): 2500 nM
log P (log P): 3.85
Ki [1]: 1 nM
Ki [2]: 2.9 nM

CC(=O)N1CCN(C(C=C(C)C)CC(C)(C)c2ccc(C(F)(F)F)cc2)CC1 (stereo not drawn) [Compound 71]
IC50 (potassium channel hERG): 17000 nM
log P (log P): 4.61
Ki [1]: 62 nM
Ki [2]: 340 nM

CC(C)=CC(CC(C)(C)c1ccc(C)cc1)N1CCN(CC(C)C)CC1 (stereo not drawn) [Compound 45]
EC50 [3]: 2600 nM
log P (log P): 6.26
Ki [2]: 85 nM

CC(C)=CC(CC(C)(C)c1ccc(C)cc1)N1CCN(c2ccccc2)CC1 (stereo not drawn) [Compound 60]
EC50 [3]: 1000 nM
log P (log P): 6.91
Ki [2]: 210 nM

CC(C)=CC(CC(C)(C)c1ccc(C)cc1)NCc1ccc(C)cc1 (stereo not drawn) [Compound 54]
EC50 [3]: 3200 nM
log P (log P): 7.02
Ki [2]: 120 nM

CC(C)=CC(CC(C)(C)c1ccc(C)cc1)N1CCC(C(C)C)CC1 (stereo not drawn) [Compound 33]
EC50 [3]: 1920 nM
log P (log P): 7.04
Ki [2]: 33 nM

CC(C)=CC(CC(C)(C)c1ccc(Cl)cc1)N1CCC(c2ccnc(N3CCOCC3)c2)CC1 (stereo not drawn) [Compound 67]
EC50 [3]: 13000 nM
log P (log P): 6.8
Ki [2]: 300 nM

CC(C)=CC(CC(C)(C)c1ccc(C)cc1)N1CCC(C2CCOCC2)CC1 (stereo not drawn) [Compound 3]
EC50 [3]: 250 nM
log P (log P): 6.22
Ki [2]: 0.76 nM

CC(C)=CC(CC(C)(C)c1ccc(Cl)cc1)N1CCC(c2ccnc(N3CCCC3)c2)CC1 (stereo not drawn) [Compound 63]
EC50 [3]: 1500 nM
log P (log P): 7.42
Ki [2]: 240 nM

CC(C)=CC(CC(C)(C)c1ccc(C(F)(F)F)cc1)N1CCC(CCOC2CCOC2)CC1 (stereo not drawn) [Compound 182]
IC50 (potassium channel hERG): 2600 nM
log P (log P): 6.22
Ki [1]: 160 nM

COc1ccc(C(C)(C)CC(C=C(C)C)NCC2CCOCC2)cc1 (stereo not drawn) [Compound 74]
EC50 [3]: 12900 nM
log P (log P): 4.54
Ki [2]: 430 nM

CC(C)=CC(CC(C)(C)c1ccc(Cl)cc1)N1CCC(c2ccncc2)CC1 (stereo not drawn) [Compound 24]
EC50 [3]: 20000 nM
log P (log P): 6.31
Ki [2]: 10 nM

CC(C)=CC(COc1ccc(Cl)cc1)N1CCC(O)CC1 (stereo not drawn) [Compound 186]
IC50 (potassium channel hERG): 2300 nM
log P (log P): 3.18
Ki [1]: 42 nM

CC(C)=CC(COc1ccccc1)N1CCC(O)CC1 (stereo not drawn) [Compound 184]
IC50 (potassium channel hERG): 62000 nM
log P (log P): 2.57
Ki [1]: 220 nM

CC(C)=CC(CC(C)(C)c1ccc(F)cc1)N1CCC(CCOC2CCOC2)CC1 (stereo not drawn) [Compound 179]
IC50 (potassium channel hERG): 4000 nM
log P (log P): 5.49
Ki [1]: 430 nM

CC(C)=CC(CC(C)(C)c1ccc(S(C)(=O)=O)cc1)N1CCC(c2ccncc2)CC1 (stereo not drawn) [Compound 51]
EC50 [3]: 20000 nM
log P (log P): 4.55
Ki [2]: 100 nM

CC(C)=CC(CC(C)(C)c1ccc(C)cc1)NCC1CCOCC1 (stereo not drawn) [Compound 57]
EC50 [3]: 730 nM
log P (log P): 5.21
Ki [2]: 150 nM

CC(C)=CC(CC(C)(C)c1ccc(C)cc1)N[C@H](C)c1ccccc1 (stereo partly drawn) [Compound 80]
EC50 [3]: 640 nM
log P (log P): 6.93
Ki [2]: 1300 nM

CC(C)=CC(CC(C)(C)c1ccc(Cl)cc1)N1CCC(c2cccc(S(C)(=O)=O)c2)CC1 (stereo not drawn) [Compound 46]
EC50 [3]: 4800 nM
log P (log P): 6.37
Ki [2]: 86 nM

COCCC1(O)CCN(C(C=C(C)C)CC(C)(C)c2ccc(C(F)(F)F)cc2)CC1 (stereo not drawn) [Compound 210]
IC50 (potassium channel hERG): 4400 nM
EC50 [3]: 420 nM
log P (log P): 4.79

CC(C)=CC(CC(C)(C)c1ccc(C(F)(F)F)cc1)N1CCC2(CC1)OCc1ccccc12 (stereo not drawn) [Compound 189]
IC50 (potassium channel hERG): 5700 nM
log P (log P): 6.89
Ki [1]: 37 nM

CC(C)=CC(CC(C)(C)c1ccc(C)cc1)NCC1CCCCC1 (stereo not drawn) [Compound 52]
EC50 [3]: 4800 nM
log P (log P): 6.9
Ki [2]: 110 nM
